In patent US9556150B2, “Inhibitors of bruton's tyrosine kinase” (Hoffmann-La Roche Inc., priority 2013, dated 2017):

What follows are compounds tested against Bruton's Tyrosine Kinase (BTK), inactivated state (Homo sapiens (Human), UniProt Q06187) (assay: Bruton's Tyrosine Kinase (BTK) Inhibition TR-FRET (Time Resolved FRET) competition assay). Settings: TR-FRET competition with Kinase Tracer 178, BTK-Eu complex, 18-24 h at 14° C.
Type: binding
Experimental: Bruton's Tyrosine Kinase (BTK) Inhibition TR-FRET (Time Resolved FRET) Assay
This BTK competition assay measures compound potency (IC50) for the inactivated state of Bruton's Tyrosine Kinase using FRET (Förster/Fluorescence Resonance Energy Transfer) technology. The BTK-Eu complex was incubated on ice one hour prior to use at a starting concentration of 50 nM BTK-Bioease™: 10 nM Eu-streptavidin (Perkin-Elmer Catalog#AD0062). The assay buffer consisted of 20 mM HEPES (pH 7.15), 0.1 mM DTT, 10 mM MgCl2, 0.5 mg/ml BSA with 3% Kinase Stabilizer (Fremont Biosolutions, Catalog #STB-K02). After 1 h, the reaction mixture from above was diluted 10 fold in assay buffer to make 5 nM BTK: 1 nM Eu-Streptavidin complex (donor fluorophore). 18 μl of a mixture of 0.11 nM BTK-Eu and 0.11 nM Kinase Tracer 178 (Invitrogen, Catalog #PV5593,) with BTK-Eu alone as no negative control, was then dispensed into 384-well flat bottom plates (Greiner, 784076). Compounds to be tested in assay were prepared as 10× concentrations and serial dilution in half-log increments was performed in DMSO so as to generate 10 point curves. To initiate the FRET reaction, compounds prepared as 10× stock in DMSO was added to the plates and the plates were incubated 18-24 h at 14° C.
After the incubation the plates were read on a BMG Pherastar Fluorescent plate reader (or equivalent) and used to measure the emission energy from the europium donor fluorophore (620 nm emission) and the FRET (665 nm emission). The negative control well values were averaged to obtain the mean minimum. The positive “no inhibitor” control wells were averaged to obtain the mean maximum. Percent of maximal FRET was calculated using following equation: % max FRET=100×[(FSR cmpd−FSR mean min)/(FSR mean max−FSR mean min)]
where FSR=FRET Signal ratio. % Max FRET curves were plotted in Activity Base (Excel) and the IC50(%), hill slope, z′ and % CV were determined. The mean IC50 and standard deviation will be derived from duplicate curves (singlet inhibition curves from two independent dilutions) using Microsoft Excel.
Representative compound data for this assay are listed below in Table II.

Bruton's Tyrosine Kinase (BTK), inactivated state, sequence (Q06187 whole entry): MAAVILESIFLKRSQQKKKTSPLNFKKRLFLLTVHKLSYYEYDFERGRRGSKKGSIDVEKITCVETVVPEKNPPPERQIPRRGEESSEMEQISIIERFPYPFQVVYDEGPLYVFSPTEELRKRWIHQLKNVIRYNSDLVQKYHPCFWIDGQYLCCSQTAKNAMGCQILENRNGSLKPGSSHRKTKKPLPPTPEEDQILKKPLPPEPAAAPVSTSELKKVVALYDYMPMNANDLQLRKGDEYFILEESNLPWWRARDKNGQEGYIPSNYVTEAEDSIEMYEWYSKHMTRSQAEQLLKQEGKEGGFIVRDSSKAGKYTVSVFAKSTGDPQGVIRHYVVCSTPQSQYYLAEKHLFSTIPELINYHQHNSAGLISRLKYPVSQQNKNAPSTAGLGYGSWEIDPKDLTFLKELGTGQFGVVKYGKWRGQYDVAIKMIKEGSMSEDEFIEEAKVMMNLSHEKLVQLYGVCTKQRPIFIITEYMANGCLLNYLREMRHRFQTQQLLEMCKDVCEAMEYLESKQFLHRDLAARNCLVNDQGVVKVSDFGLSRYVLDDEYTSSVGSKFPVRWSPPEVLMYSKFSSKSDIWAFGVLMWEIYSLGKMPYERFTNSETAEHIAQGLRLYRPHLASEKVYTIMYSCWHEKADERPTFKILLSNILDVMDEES

| IC50 | SMILES |
| --- | --- |
| 43 nM | Cc1cc(Oc2ccccc2)c(F)cc1-n1ncc(C(=O)c2cc3cc(C(=O)N4CCOCC4)ccc3[nH]2)c1N [Example I-6, {2-[5-Amino-1-(5-fluoro-2-methyl-4-phenoxy-phenyl)-1H-pyrazole-4-carbonyl]-1H-indol-5-yl}-morpholin-4-yl-methanone] |
| 200 nM | Cc1cc(Oc2ccccn2)ccc1-n1ncc(C(=O)c2cc3cc(C(=O)N4CCOCC4)ccc3[nH]2)c1N [Example I-11, {5-Amino-1-[2-methyl-4-(pyridin-2-yloxy)-phenyl]-1H-pyrazol-4-yl}-[5-(morpholine-4-carbonyl)-1H-indol-2-yl]-methanone] |
| 3.2 nM | N#Cc1cccc(Oc2ccc(-n3ncc(C(=O)c4cc5cc(C(=O)O)ccc5[nH]4)c3N)c(Cl)c2)c1F [Example I-48, 2-{5-Amino-1-[2-chloro-4-(3-cyano-2-fluoro-phenoxy)-phenyl]-1H-pyrazole-4-carbonyl}-1H-indole-5-carboxylic acid] |
| 4.6 nM | Cc1cc(Oc2ccccc2F)ccc1-n1ncc(C(=O)c2cc3cc(C(=O)N4CCOCC4)ccc3[nH]2)c1N [Example I-2, {5-Amino-1-[4-(2-fluoro-phenoxy)-2-methyl-phenyl]-1H-pyrazol-4-yl}-[5-(morpholine-4-carbonyl)-1H-indol-2-yl]-methanone] |
| 530 nM | Nc1c(C(=O)c2cc3cc(C(=O)N4CCOCC4)ccc3[nH]2)cnn1-c1ccc(Oc2cc(F)ccc2F)nc1 [Example I-13, {5-Amino-1-[6-(2,5-difluoro-phenoxy)-pyridin-3-yl]-1H-pyrazol-4-yl}-[5-(morpholine-4-carbonyl)-1H-indol-2-yl]-methanone] |
| 4.3 nM | Nc1c(C(=O)c2cc3cc(C(=O)N4CCOCC4)ccc3[nH]2)cnn1-c1ccc(Oc2cccc(F)c2F)cc1O [Example I-29, {5-Amino-1-[4-(2,3-difluoro-phenoxy)-2-hydroxy-phenyl]-1H-pyrazol-4-yl}-[5-(morpholine-4-carbonyl)-1H-indol-2-yl]-methanone] |
| 74 nM | COc1nc(Oc2cccc(F)c2F)ccc1-n1ncc(C(=O)c2cc3cc(C(=O)N4CCOCC4)ccc3[nH]2)c1N [Example I-25, {5-Amino-1-[6-(2,3-difluoro-phenoxy)-2-methoxy-pyridin-3-yl]-1H-pyrazol-4-yl}-[5-(morpholine-4-carbonyl)-1H-indol-2-yl]-methanone] |
| 13 nM | Nc1c(C(=O)c2cc3cc(C(=O)N4CCOCC4)ccc3[nH]2)cnn1-c1ccc(Oc2cccc(F)c2F)cc1 [Example I-12, {5-Amino-1-[4-(2,3-difluoro-phenoxy)-phenyl]-1H-pyrazol-4-yl}-[5-(morpholine-4-carbonyl)-1H-indol-2-yl]-methanone] |
| 150 nM | COc1ccc(-n2ncc(C(=O)c3cc4cc(C(=O)N5CCOCC5)ccc4[nH]3)c2N)c(C)c1 [Example I-20, [5-Amino-1-(4-methoxy-2-methyl-phenyl)-1H-pyrazol-4-yl]-[5-(morpholine-4-carbonyl)-1H-indol-2-yl]-methanone] |
| 5.1 nM | CN(C)C(=O)c1ccccc1Oc1ccc(-n2ncc(C(=O)c3cc4cc(C(=O)NCCN(C)C(=O)OC(C)(C)C)ccc4[nH]3)c2N)c(Cl)c1 [Example I-55, {2-[(2-{5-Amino-1-[2-chloro-4-(2-dimethylcarbamoyl-phenoxy)-phenyl]-1H-pyrazole-4-carbonyl}-1H-indole-5-carbonyl)-amino]-ethyl}-methyl-carbamic acid tert-butyl ester] |
| 5 nM | Cc1cc(Oc2cccc(C#N)c2)ccc1-n1ncc(C(=O)c2cc3cc(C(=O)NCCN)ccc3[nH]2)c1N [Example I-36, 2-{5-Amino-1-[4-(3-cyano-phenoxy)-2-methyl-phenyl]-1H-pyrazole-4-carbonyl}-H-indole-5-carboxylic acid (2-amino-ethyl)-amide] |
| 3.3 nM | CN(C)C(=O)c1ccccc1Oc1ccc(-n2ncc(C(=O)c3cc4cc(C(=O)N5CCOCC5)ccc4[nH]3)c2N)c(Cl)c1 [Example I-57, 2-(4-{5-Amino-4-[5-(morpholine-4-carbonyl)-1H-indole-2-carbonyl]-pyrazol-1-yl}-3-chloro-phenoxy)-N,N-dimethyl-benzamide] |
